Results published in patent publication US8604024B2, “Compounds for the reduction of beta-amyloid production” (Bristol-Myers Squibb Company, priority 2011, dated 2013).
Where a name gives a salt, the structure may show the parent alone. Read-outs that look alike come from different tables or passages of the source.

System: Aβ1-42 production in H4 cells stably transfected with APP751 containing the Swedish mutation
Assay: Cellular assay for inhibition of Aβ1-42 production (H4 APP751 SWE clone 8.20)
Format: cell-based
Conditions: H4 APP751 SWE clone 8.20 cells, 19 h incubation, read-out: Aβ42 cellular IC50
Protocol: Cellular Assays for Inhibition of Aβ1-40 and Aβ1-42 Production
H4 cells stably transfected with APP751 containing the Swedish mutation (H4 APP751 SWE clone 8.20, developed at BMS) were maintained in log phase through twice weekly passage at a 1:20 split. […] Following incubation for 19 h in 5% CO2 at 37° C., plates were briefly centrifuged (1000 rpm, 5 min). A 10 μl aliquot from each well was transferred to a second assay plate (Costar 3709) for Aβ40 measurements. Antibody cocktails were freshly prepared by dilution into 40 mM Tris-HCl (pH 7.4) with 0.2% BSA and added to assay plates. For Aβ42 measurements, antibodies specific for the Aβ42 neoepitope (565, developed at BMS; conjugated to the Wallac reagent (Perkin Elmer)) and the N-terminal sequence of Aβ peptide (26D6, developed at SIBIA; conjugated to APC (Perkin Elmer)) were mixed and 20 μl of the mixture was added to each well of the incubated cell plate yielding a final concentration of 0.8 ng/well 565 and 75 ng/well 26D6. For the Aβ40 measurements, antibodies specific for the Aβ40 neoepitope (TSD, developed at BMS; conjugated to the Wallac reagent (Perkin Elmer)) and 26D6 as described above were mixed and 20 μl of the mixture was added to the 10 μl aliquots which had been removed previously from the cell plate yielding a final concentration of 1.6 ng/well TSD and 17.5 ng/well 26D6. Assay plates containing antibodies were sealed with aluminum foil and incubated overnight at 4° C. Signal was determined using a Viewlux counter (Perkin Elmer) and IC50 values determined using curve fitting in CurveMaster (Excel Fit based).

Row | Structure (SMILES) | IC50 (19 h) [µM] | IC50 [µM]
1 | C[C@]12N=C(N)SC[C@H]1CCCc1ccc(NC(=O)c3ccc(OC(F)F)cn3)cc12 [Example 46a, N-((4aS,11bS)-2-Amino-11b-methyl-4,4a,5,6,7,11b-hexahydrobenzo[6,7]cyclohepta[1,2-d][1,3]thiazin-10-yl)-5-(difluoromethoxy)picolinamide] | 0.027 | –
2 | C[C@]12N=C(N)SC[C@H]1CCCc1ccc(NC(=O)c3ncc(Cl)cc3Cl)cc12 [Example 45a, N-((4aS,11bS)-2-Amino-11b-methyl-4,4a,5,6,7,11b-hexahydrobenzo[6,7]cyclohepta[1,2-d][1,3]thiazin-10-yl)-3,5-dichloropicolinamide] | 0.0072 | –
3 | C[C@]12N=C(N)SC[C@H]1CCOc1ccc(NC(=O)c3ccc(C#N)cn3)cc12 [Example 35b, N-((4aS,11bS)-2-amino-11b-methyl-4a,5,6,11b-tetrahydro-4H-benzo[2,3]oxepino[4,5-d][1,3]thiazin-10-yl)-5-cyanopicolinamide] | – | 0.0062
4 | C[C@]12N=C(N)SC[C@H]1CCCc1ccc(-c3cncnc3)cc12 (relative stereo) [Example 2, rel-(4aS,11bS)-11b-Methyl-10-pyrimidin-5-yl-4,4a,5,6,7,11b-hexahydro-3-thia-1-aza-dibenzo[a,c]cyclohepten-2-ylamine, bis(2,2,2-trifluoroacetate)] | 3.4 | –
5 | COc1ccc(-c2cn(-c3ccc4c(c3)[C@@]3(C)N=C(N)SC[C@H]3CCO4)cn2)cc1 (relative stereo) [Example 31, rel-(4aS,11bS)-10-(4-(4-Methoxyphenyl)-1H-imidazol-1-yl)-11b-methyl-4a,5,6,11b-tetrahydro-4H-benzo[2,3]oxepino[4,5-d][1,3]thiazin-2-amine, bis(2,2,2-trifluoroacetate)] | 9.4 | –
6 | C[C@]12N=C(N)SC[C@H]1CCOc1ccc(NC(=O)c3ccc(F)cn3)cc12 [Example 36a, N-((4aS,11bS)-2-Amino-11b-methyl-4a,5,6,11b-tetrahydro-4H-benzo[2,3]oxepino[4,5-d][1,3]thiazin-10-yl)-5-fluoropicolinamide] | 0.017 | –
7 | C[C@]12N=C(N)SC[C@H]1CCCc1ccc(Br)cc12 (relative stereo) [Example 16] | 2.5 | –
8 | C[C@]12N=C(N)SC[C@H]1CCCc1ccc(-c3cncc(Cl)c3)cc12 (relative stereo) [Example 13, rel-(4aS,11bS)-10-(5-Chloropyridin-3-yl)-11b-methyl-4,4a,5,6,7,11b-hexahydrobenzo[6,7]cyclohepta[1,2-d][1,3]thiazin-2-amine, bis(2,2,2-trifluoroacetate)] | 3.1 | –
9 | C[C@@]12N=C(N)SC[C@@H]1CCc1ccc(NC(=O)c3ccc(Cl)cn3)cc12 [Example 7a, N-((4aR,10bR)-2-Amino-10b-methyl-4a,5,6,10b-tetrahydro-4H-naphtho[1,2-d][1,3]thiazin-9-yl)-5-chloropicolinamide] | 3.5 | –
10 | C[C@]12N=C(N)SC[C@H]1CCOc1ccc(Nc3ncnc4ccccc34)cc12 (relative stereo) [Example 40, rel-(4aS,11bS)-11b-Methyl-N10-(quinazolin-4-yl)-4a,5,6,11b-tetrahydro-4H-benzo[2,3]oxepino[4,5-d][1,3]thiazine-2,10-diamine, bis(2,2,2-trifluoroacetate)] | 15 | –
11 | C[C@@]12N=C(N)SC[C@@H]1CCOc1ccc(NC(=O)c3ccc(C#N)cn3)cc12 (stereo in doubt) [Example 35a, N-((4aR,11bR)-2-amino-11b-methyl-4a,5,6,11b-tetrahydro-4H-benzo[2,3]oxepino[4,5-d][1,3]thiazin-10-yl)-5-cyanopicolinamide] | – | 5.1
12 | C[C@]12N=C(N)SC[C@H]1CCOc1ccc(Nc3nccc4ccccc34)cc12 (relative stereo) [Example 41, rel-(4aS,11bS)—N10-(Isoquinolin-1-yl)-11b-methyl-4a,5,6,11b-tetrahydro-4H-benzo[2,3]oxepino[4,5-d][1,3]thiazine-2,10-diamine, bis(2,2,2-trifluoroacetate)] | 16 | –
13 | COc1cccnc1Nc1ccc2c(c1)[C@@]1(C)N=C(N)SC[C@H]1CCO2 (relative stereo) [Example 38, rel-(4aS,11bS)—N10-(3-Methoxypyridin-2-yl)-11b-methyl-4a,5,6,11b-tetrahydro-4H-benzo[2,3]oxepino[4,5-d][1,3]thiazine-2,10-diamine, bis(2,2,2-trifluoroacetate)] | 1.3 | –
14 | C[C@]12N=C(N)SC[C@H]1CCOc1ccc(NC(=O)c3ccc(C#N)cn3)cc12 (relative stereo) [Example 35, rel-N-((4aS,11bS)-2-Amino-11b-methyl-4a,5,6,11b-tetrahydro-4H-benzo[2,3]oxepino[4,5-d][1,3]thiazin-10-yl)-5-cyanopicolinamide, 2,2,2-trifluoroacetate salt] | 0.028 | –
15 | NC1=N[C@@H]2c3cc(-c4cncnc4)ccc3CCC[C@@H]2CS1 (relative stereo) [Example 1, rel-(4aS,11bS)-10-Pyrimidin-5-yl-4,4a,5,6,7,11b-hexahydro-3-thia-1-aza-dibenzo[a,c]cyclohepten-2-ylamine, bis(2,2,2-trifluoroacetate)] | 5.2 | –
16 | CC#Cc1cncc(-c2ccc3c(c2)[C@@]2(C)N=C(N)SC[C@H]2CCO3)c1 (relative stereo) [Example 22, rel-(4aS,11bS)-11b-methyl-10-(5-(prop-1-yn-1-yl)pyridin-3-yl)-4a,5,6,11b-tetrahydro-4H-benzo[2,3]oxepino[4,5-d][1,3]thiazin-2-amine, bis(2,2,2-trifluoroacetate)] | 0.96 | –
17 | C[C@@]12N=C(N)SC[C@@H]1CCOc1ccc(NC(=O)c3ncc(Cl)cc3Cl)cc12 [Example 34b, N-((4aR,11bR)-2-Amino-11b-methyl-4a,5,6,11b-tetrahydro-4H-benzo[2,3]oxepino[4,5-d][1,3]thiazin-10-yl)-3,5-dichloropicolinamide] | 0.79 | –
18 | C[C@]12N=C(N)SC[C@H]1CCCc1ccc(NC(=O)c3ccc(F)cn3)cc12 [Example 43b, N-((4aS,11bS)-2-Amino-11b-methyl-4,4a,5,6,7,11b-hexahydrobenzo[6,7]cyclohepta[1,2-d][1,3]thiazin-10-yl)-5-fluoropicolinamide] | 0.12 | –
19 | Cc1ncc(-c2ccc3c(c2)[C@@]2(C)N=C(N)SC[C@H]2CCO3)s1 [Example 26b, (4aS,11bS)-11b-Methyl-10-(2-methylthiazol-5-yl)-4a,5,6,11b-tetrahydro-4H-benzo[2,3]oxepino[4,5-d][1,3]thiazin-2-amine] | 3.2 | –
20 | Cc1ncc(-c2ccc3c(c2)[C@]2(C)N=C(N)SC[C@@H]2CCO3)s1 [Example 26a, (4aR,11bR)-11b-Methyl-10-(2-methylthiazol-5-yl)-4a,5,6,11b-tetrahydro-4H-benzo[2,3]oxepino[4,5-d][1,3]thiazin-2-amine] | 4.5 | –
21 | COc1ccnc(Nc2ccc3c(c2)[C@@]2(C)N=C(N)SC[C@H]2CCO3)n1 (relative stereo) [Example 42, rel-(4aS,11bS)—N10-(4-Methoxypyrimidin-2-yl)-11b-methyl-4a,5,6,11b-tetrahydro-4H-benzo[2,3]oxepino[4,5-d][1,3]thiazine-2,10-diamine, bis(2,2,2-trifluoroacetate)] | 1.5 | –
22 | C[C@]12N=C(N)SC[C@H]1CCCc1cc(F)c(-c3cncnc3)cc12 (relative stereo) [Example 47, rel-(4aS,11bS)-9-fluoro-11b-methyl-10-(pyrimidin-5-yl)-4,4a,5,6,7,11b-hexahydrobenzo[6,7]cyclohepta[1,2-d][1,3]thiazin-2-amine, bis(2,2,2-trifluoroacetate)] | 2.7 | –
